We go through six molecules from ChEMBL document CHEMBL1201862, “PubChem BioAssay data set” (2004).

The nature of assay [1]: nonselective StAR promoter luciferase inhibitors – cell-based, luminescence, luciferase reporter, counter-screen for LRH-1 inverse agonist project, dose response (AID 651969). Format: functional. Background: Reporter assays use an easily measured gene product as a stand-in for the process of interest.
The target in assay [2] is Nuclear receptor subfamily 5 group A member 2 (Homo sapiens, UniProt O00482). The format is functional, cell-based.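 Note: HEK293T cells transfected with LRH-1 and a StAR promoter luciferase reporter; potency for inhibitors that lower LRH-1 driven reporter light.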
For a further assay, the target named is Steroidogenic factor 1 (Homo sapiens, UniProt Q13285). Put plainly: Counterscreen for inverse agonists of the liver receptor homolog-1 (LRH-1; NR5A2): Luminescence-based cell-based high throughput dose response assay to identify inverse agonists of the Steroidogenic Factor 1 Nuclear Receptor (SF1; NR5A1). The format is functional. For orientation: Counterscreens check selectivity or assay interference.

Assay [3] addresses T1, Sentrin-specific protease 8 (Homo sapiens, UniProt Q96LD8).
T1 sequence (Q96LD8 whole entry): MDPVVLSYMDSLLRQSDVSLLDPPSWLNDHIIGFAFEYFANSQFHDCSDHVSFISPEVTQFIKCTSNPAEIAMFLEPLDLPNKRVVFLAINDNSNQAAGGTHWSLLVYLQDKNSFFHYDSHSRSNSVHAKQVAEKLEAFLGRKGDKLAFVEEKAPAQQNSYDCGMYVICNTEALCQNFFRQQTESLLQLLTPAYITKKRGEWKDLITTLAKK
Format: functional.

Assay [4] concerns the target T1, Sentrin-specific protease 8. Format: functional. The source holds these as a separate data set.
Assay [5] in a line: blockers of CRF-binding protein–CRF-R2 complex – cell-based, uHTS hits, 384-well, dose response (AID 651639). The format is functional, Homo sapiens. Conditions: read-out: IC50_Mean.
Assay [6] has as its target T2, Corticotropin-releasing factor receptor 2/Corticotropin-releasing factor-binding protein (Homo sapiens, UniProt P24387+Q13324).
T2 sequence (Q13324 whole entry): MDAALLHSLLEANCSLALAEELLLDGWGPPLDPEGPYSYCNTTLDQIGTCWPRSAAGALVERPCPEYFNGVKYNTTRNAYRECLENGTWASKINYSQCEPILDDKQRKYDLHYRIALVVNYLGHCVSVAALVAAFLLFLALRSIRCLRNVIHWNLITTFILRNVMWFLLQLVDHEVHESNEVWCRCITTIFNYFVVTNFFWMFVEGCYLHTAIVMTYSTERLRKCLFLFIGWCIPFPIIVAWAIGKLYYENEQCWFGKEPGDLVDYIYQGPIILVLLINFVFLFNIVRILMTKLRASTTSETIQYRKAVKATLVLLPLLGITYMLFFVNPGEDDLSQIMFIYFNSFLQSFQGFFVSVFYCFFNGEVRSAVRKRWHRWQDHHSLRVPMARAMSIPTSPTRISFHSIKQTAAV
T2 sequence (P24387 whole entry): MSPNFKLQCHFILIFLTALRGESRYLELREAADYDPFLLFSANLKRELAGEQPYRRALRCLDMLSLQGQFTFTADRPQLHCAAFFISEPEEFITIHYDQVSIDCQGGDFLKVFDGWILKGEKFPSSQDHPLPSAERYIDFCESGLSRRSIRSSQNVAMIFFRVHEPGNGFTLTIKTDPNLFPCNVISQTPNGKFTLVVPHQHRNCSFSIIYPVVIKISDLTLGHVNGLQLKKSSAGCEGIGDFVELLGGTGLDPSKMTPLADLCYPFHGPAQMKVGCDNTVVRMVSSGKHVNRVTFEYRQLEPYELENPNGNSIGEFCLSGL
Nature of the assay: Dose Response confirmation of uHTS hits for small molecule antagonists of the CRF-binding protein and CRF-R2 receptor complex. The format is functional. The settings on record: read-out: IC50_Mean.

For assay [7], the target named is T2, Corticotropin-releasing factor receptor 2/Corticotropin-releasing factor-binding protein. Put plainly: activators of CRF receptor 2 with binding protein – uHTS hits, confirmation (AID 602473). The format is functional. Conditions: read-out: EC50_Mean.
Another assay deals with T3, Aminopeptidase N (Plasmodium falciparum FcB1/Columbia, UniProt O96935).
T3 sequence (O96935 whole entry): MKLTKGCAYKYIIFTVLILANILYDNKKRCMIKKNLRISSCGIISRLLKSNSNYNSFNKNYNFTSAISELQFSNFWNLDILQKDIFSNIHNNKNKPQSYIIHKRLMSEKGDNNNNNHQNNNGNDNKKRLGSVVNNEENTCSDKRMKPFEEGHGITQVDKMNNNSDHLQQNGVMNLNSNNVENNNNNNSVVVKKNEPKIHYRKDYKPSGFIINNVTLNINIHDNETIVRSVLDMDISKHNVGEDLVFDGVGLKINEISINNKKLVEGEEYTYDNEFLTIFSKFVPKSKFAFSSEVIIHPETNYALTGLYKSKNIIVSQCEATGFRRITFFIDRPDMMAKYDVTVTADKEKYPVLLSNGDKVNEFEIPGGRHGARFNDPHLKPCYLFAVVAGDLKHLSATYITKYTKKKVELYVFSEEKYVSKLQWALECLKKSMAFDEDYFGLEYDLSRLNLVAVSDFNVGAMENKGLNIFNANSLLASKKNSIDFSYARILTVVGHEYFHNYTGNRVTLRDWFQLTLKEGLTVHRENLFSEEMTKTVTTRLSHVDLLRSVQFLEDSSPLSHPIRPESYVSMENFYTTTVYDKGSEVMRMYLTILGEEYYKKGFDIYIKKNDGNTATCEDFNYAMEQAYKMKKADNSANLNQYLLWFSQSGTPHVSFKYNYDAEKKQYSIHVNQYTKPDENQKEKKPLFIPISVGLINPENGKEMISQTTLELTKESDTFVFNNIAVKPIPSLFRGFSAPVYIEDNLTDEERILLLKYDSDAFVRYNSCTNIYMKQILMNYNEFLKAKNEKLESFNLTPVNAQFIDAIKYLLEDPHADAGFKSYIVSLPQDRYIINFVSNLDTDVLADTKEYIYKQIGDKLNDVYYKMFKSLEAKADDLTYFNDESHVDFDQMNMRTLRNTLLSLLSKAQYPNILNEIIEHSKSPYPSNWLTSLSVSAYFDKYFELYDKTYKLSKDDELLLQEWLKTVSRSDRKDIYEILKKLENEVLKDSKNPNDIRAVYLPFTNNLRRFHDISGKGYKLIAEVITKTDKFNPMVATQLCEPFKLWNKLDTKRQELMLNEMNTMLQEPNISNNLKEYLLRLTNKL
Put plainly: malaria alanyl aminopeptidase activity blockers – biochemical, fluorogenic H-Leu-NHMec substrate, 1536-well (AID 1445). The arrangement: species or system Plasmodium falciparum 3D7, 3D7.

In the next assay the target is Large T antigen (Simian virus 40, UniProt P03070). Format: functional, Betapolyomavirus macacae.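 Note: Confirmatory-stage PubChem screen for compounds that inhibit SV40 T antigen.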
The target of the next assay is Genome polyprotein (dengue virus type 2, UniProt P29990). Put plainly: flavivirus cap methylation enzyme inhibition – biochemical, confirmation dose response, primary screen (AID 588689). Format: functional.
Assay [8] concerns the target 72 kDa type IV collagenase (Homo sapiens, UniProt P08253). Nature of the assay: Dose Response validation of uHTS RPN11 inhibitor hits using a MMP-2 Fluorescence assay. The format is functional.
Assay [9] deals with T4, Carboxy-terminal domain RNA polymerase II polypeptide A small phosphatase 1 (Homo sapiens, UniProt Q9GZU7).
T4 sequence (Q9GZU7 whole entry): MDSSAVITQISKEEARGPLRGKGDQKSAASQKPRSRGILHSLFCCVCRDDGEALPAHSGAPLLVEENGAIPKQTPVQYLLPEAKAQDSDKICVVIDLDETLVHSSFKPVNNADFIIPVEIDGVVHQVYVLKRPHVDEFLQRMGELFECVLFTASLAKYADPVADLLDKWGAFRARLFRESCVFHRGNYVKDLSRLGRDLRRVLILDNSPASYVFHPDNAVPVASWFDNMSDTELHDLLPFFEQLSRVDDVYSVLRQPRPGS
Nature of the assay: CTDSP1 inhibitors, concentration-response, biochemical, absorbance readout, ultra-high-throughput screen actives (AID 540297). The format is functional.

Assay [10] concerns the target 26S proteasome non-ATPase regulatory subunit 14 (Homo sapiens, UniProt O00487). Put plainly: inhibition of proteasome subunit RPN11 – biochemical, fluorescence polarization, uHTS hits, confirmation (AID 602368). Format: functional. In general terms: Fluorescence polarisation rises when a labelled molecule tumbles more slowly, as on binding a larger partner.
For a further assay, the target named is Prothrombin (Bos taurus, UniProt P00735). Nature of the assay: thrombin protease inhibitors – biochemical, fluorescence polarization, uHTS hits, dose response (AID 602369). Format: functional.
The target in assay [11] is T5, Rac GTPase-activating protein 1 (Homo sapiens, UniProt Q9H0H5).
T5 sequence (Q9H0H5 whole entry): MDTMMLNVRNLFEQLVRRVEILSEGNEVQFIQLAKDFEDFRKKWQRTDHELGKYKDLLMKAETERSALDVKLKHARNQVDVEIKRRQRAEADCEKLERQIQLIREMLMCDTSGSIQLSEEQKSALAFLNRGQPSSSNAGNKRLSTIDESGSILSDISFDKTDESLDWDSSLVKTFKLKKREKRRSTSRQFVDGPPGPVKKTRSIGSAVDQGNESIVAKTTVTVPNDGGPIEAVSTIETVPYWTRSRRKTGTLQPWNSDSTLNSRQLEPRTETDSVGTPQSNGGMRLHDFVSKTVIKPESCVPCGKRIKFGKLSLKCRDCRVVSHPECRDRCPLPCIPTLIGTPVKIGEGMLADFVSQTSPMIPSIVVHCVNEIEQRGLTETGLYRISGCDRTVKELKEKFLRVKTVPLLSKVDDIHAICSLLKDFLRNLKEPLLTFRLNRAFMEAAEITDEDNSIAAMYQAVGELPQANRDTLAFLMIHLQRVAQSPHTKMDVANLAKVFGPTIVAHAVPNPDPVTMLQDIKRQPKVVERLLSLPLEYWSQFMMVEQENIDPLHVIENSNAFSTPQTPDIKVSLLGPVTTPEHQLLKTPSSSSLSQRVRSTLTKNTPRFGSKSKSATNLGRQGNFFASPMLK
Nature of the assay: blockers of MgcRacGAP-driven Rac1 GTP hydrolysis – biochemical, ADP Hunter fluorescence, primary and confirmatory, confirmation (AID 624330). Format: functional.

A short description of assay [12]: Fluorescence-based cell-based high throughput dose response assay for inhibitors of the interaction of nucleotide-binding oligomerization domain containing 2 (NOD2) and the receptor-interacting serine-threonine kinase 2 (RIPK2). The format is functional. Conditions: Homo sapiens.

Activity calls are given as the source filed them.

Sequence of Steroidogenic factor 1 (Q13285 whole entry): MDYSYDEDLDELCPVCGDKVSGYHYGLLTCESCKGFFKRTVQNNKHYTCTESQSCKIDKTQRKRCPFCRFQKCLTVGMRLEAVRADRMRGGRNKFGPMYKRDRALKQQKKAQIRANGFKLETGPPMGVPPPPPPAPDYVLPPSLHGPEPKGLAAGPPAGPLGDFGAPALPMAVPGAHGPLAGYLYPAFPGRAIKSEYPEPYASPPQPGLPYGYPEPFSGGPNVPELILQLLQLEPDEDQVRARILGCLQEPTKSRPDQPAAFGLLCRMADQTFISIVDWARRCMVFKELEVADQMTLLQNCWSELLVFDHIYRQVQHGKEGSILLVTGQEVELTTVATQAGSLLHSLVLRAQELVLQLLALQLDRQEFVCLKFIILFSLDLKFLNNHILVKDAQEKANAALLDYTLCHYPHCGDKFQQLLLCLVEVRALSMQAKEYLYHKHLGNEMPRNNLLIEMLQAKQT
Sequence of Nuclear receptor subfamily 5 group A member 2 (O00482 whole entry): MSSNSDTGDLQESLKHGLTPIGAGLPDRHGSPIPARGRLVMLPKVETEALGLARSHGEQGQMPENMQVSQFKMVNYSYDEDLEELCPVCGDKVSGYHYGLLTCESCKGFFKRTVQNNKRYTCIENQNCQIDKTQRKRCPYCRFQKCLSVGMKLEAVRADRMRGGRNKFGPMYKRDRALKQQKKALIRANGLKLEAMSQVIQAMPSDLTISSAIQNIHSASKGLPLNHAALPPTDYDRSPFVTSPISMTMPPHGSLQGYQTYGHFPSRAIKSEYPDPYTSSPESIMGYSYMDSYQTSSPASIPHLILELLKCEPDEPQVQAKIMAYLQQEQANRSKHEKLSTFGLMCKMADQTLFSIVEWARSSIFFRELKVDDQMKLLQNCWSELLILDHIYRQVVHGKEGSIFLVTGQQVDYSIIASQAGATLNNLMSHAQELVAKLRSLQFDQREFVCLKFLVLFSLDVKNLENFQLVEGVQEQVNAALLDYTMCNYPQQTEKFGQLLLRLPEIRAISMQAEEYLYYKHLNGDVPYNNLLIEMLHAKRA
Sequence of 72 kDa type IV collagenase (P08253 whole entry, the tested form may be a part): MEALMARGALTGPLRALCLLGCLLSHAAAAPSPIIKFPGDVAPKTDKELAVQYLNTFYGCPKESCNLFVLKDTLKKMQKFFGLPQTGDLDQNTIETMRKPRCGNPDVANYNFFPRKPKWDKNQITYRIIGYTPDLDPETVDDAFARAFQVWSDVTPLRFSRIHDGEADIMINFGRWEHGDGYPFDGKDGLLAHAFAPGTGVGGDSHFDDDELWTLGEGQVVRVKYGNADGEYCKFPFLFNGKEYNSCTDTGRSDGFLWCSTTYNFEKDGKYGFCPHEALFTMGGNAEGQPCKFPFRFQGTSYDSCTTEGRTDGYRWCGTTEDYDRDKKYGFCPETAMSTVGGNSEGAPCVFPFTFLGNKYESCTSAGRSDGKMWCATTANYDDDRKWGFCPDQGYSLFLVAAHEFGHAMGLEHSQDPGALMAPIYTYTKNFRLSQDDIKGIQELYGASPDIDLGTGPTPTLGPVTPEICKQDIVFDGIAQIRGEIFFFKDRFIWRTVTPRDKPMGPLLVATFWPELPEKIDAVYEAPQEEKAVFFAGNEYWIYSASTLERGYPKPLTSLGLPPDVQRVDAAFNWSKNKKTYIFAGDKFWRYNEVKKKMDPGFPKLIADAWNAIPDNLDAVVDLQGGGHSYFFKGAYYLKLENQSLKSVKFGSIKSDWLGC
Sequence of 26S proteasome non-ATPase regulatory subunit 14 (O00487 whole entry): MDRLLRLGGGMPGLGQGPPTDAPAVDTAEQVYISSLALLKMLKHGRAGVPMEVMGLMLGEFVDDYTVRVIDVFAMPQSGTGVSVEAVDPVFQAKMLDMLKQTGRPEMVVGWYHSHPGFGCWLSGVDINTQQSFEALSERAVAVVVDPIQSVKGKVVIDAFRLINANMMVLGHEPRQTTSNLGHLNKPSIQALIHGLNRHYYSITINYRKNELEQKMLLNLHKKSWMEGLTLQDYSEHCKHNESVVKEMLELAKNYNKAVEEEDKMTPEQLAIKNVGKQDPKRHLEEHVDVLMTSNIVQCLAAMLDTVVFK
Sequence of Large T antigen (P03070 whole entry): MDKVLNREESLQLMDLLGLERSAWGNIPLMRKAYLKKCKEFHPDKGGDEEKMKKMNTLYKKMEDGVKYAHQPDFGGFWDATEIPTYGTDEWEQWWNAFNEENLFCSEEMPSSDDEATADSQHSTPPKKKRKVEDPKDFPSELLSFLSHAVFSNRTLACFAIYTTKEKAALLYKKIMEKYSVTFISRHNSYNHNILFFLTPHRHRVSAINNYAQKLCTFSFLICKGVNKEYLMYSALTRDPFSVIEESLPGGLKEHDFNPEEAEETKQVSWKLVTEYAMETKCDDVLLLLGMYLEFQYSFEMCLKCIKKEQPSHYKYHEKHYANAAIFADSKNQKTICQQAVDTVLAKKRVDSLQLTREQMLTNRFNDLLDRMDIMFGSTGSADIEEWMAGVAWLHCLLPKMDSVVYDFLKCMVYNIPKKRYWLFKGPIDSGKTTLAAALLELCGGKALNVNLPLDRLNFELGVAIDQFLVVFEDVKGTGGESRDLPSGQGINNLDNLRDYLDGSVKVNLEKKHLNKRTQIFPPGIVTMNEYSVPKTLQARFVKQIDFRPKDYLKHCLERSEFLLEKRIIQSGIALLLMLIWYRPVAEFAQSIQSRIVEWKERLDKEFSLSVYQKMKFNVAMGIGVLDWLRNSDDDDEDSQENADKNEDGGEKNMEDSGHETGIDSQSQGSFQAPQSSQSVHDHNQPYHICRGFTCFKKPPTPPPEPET
Sequence of Genome polyprotein (P29990 2492-3391 limits assumed): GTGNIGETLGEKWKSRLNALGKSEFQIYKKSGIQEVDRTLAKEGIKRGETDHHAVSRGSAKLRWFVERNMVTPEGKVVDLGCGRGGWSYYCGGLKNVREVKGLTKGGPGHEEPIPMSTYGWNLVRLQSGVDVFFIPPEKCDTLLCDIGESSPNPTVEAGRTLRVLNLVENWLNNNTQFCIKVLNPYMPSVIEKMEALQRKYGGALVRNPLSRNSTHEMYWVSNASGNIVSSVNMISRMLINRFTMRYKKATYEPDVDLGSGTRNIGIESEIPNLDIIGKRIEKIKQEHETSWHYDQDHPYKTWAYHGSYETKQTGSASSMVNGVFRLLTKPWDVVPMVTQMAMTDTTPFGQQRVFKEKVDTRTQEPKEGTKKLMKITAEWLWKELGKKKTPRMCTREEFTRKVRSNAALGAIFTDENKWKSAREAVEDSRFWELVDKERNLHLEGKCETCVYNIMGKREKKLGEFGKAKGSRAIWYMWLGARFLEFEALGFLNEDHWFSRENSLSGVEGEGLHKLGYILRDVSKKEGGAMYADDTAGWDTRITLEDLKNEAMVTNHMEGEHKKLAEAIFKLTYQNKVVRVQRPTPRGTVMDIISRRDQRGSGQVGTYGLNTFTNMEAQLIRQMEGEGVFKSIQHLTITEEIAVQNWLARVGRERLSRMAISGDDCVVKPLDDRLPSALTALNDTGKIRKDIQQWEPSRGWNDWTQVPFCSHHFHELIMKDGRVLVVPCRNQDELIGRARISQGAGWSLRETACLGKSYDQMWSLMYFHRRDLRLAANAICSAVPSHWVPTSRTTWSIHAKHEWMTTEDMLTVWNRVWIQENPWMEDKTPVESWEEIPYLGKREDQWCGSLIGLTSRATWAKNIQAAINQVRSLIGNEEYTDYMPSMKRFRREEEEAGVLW

Turning to `O=C(COc1ccc2c3c(c(=O)oc2c1)CCCC3)NCCCN1CCOCC1`, the IC50 (in assay [1]; in [2]; at Steroidogenic factor 1) was 35.9 µM (inactive) in each case.
Regarding `C[C@H](CO)N1C[C@H](C)[C@H](CN(C)Cc2ccncc2)Oc2cc(-c3ccccc3F)ccc2S1(=O)=O`, the IC50 in [1] is 15.5 µM (inactive); in [2] it was 1.33 µM (active); on Steroidogenic factor 1, 1.33 µM (active).
Consider `Cc1n[nH]c(O)c1C(c1c(C)n[nH]c1O)c1cn(C)c2ccccc12`, for which the IC50 in assay [3] is 11.2 µM (active); in [4] it was 11.9 µM (active).
For `O=C(Nc1nnc(S(=O)(=O)Nc2ccccc2)s1)c1ccccc1Cl`, the IC50 in [5] was 7.38 µM (active); in [6] it was < 0.368 µM (active). Besides, the EC50 in [7] was > 53 µM (inactive).
`O=C(O)c1ccc(COc2ccccc2C=C2C(=O)c3ccccc3C2=O)cc1`: the IC50 on Aminopeptidase N was 74.9 µM (active); on Large T antigen it was 35.2 µM (active); at Genome polyprotein, 6.33 µM (active); in [8], > 100 µM (inactive); in assay [9], 5.86 µM (active); in assay [10], 17.1 µM (active). The IC50 is > 100 µM (inactive) at Prothrombin, 85.9 µM (active) in assay [11], 1.47 µM (active) in assay [5] and < 0.368 µM (active) in [6]. In [7], the EC50 was 10 µM (active).
As to `O=C1/C(=C/c2ccccc2)CN(C(=O)CCN2CCOCC2)C/C1=C\c1ccccc1`, the IC50 in assay [12] is 6.29 µM (active).
